The record followed here is EP4631960A1, “PEPTIDE HAVING INHIBITORY ACTIVITY AGAINST OSTEOCLAST DIFFERENTIATION, AND USE THEREOF” (Caregen Co., Ltd., priority 2022, dated 2024).

Peptide text beside a SMILES is read from it.

The series concerns RAW264.7 cells. In words: CCK-8 cytotoxicity evaluation. It counts as cell-based. As to conditions: CCK-8 activity at 450 nm, after 3 days, FIG. 3. The procedure: Then, after 3 days, CCK-8 (Dojindo, CCK-8 kit) solution was added to 1/10 volume of the culture medium, diluted, and incubated for 2 hours. Thereafter, the culture medium was sampled and CCK-8 activity was confirmed at a wavelength of 450 nm using a microplate reader.

As to `CC[C@H](C)[C@H](N)C(=O)N[C@H](C(=O)N[C@@H](C)C(=O)N1CCC[C@H]1C(=O)N[C@H](C(=O)NCC(=O)N[C@@H](Cc1ccc(O)cc1)C(=O)N[C@@H](Cc1ccc(O)cc1)C(=O)NCC(=O)N[C@@H](CC(N)=O)C(=O)O)[C@@H](C)O)[C@@H](C)CC` [Peptide-2, IIAPTGYYGN] (H-IIAPTGYYGN-OH), the cytotoxicity result is “did not exhibit cytotoxicity”.
